{
  "source": "patent US8907128B2",
  "about": "“Boron compound with amino acid skeleton containing cyclo ring-type ring” (Stella Pharma Corporation, priority 2010, dated 2014)",
  "tested_on": "rat glima cells (C6)",
  "assay": "Cytotoxicity test (WST-8)",
  "type": "cell-based",
  "settings": "48 hours culture with boron agent, WST-8 absorbance at 450 nm",
  "description": "Using a 96-well microplate, rat glima cells (C6) were seeded at a density of 1.5×10^4 cells/ml per well and then cultured at room temperature (37° C., 5% CO2) for 16 hours. The culture fluid was taken out by suction and the culture fluids containing boron agents at various concentrations obtained in the Examples were added to respective wells in an amount of […] each. After culturing at room temperature (37° C., 5% CO2) for 48 hours, the culture fluid was taken out by suction, […] portions of WST-8 solution were added respectively, and culture was further carried out at room temperature (37° C., 5% CO2) for 4 hours. Using a microplate reader, the absorbance at a wavelength of 450 nm (reference wavelength: 655 nm) was measured and the absorbance of wells not containing cells was employed as background control, to determine each IC50 value.",
  "data": [
    {"compound": "N[C@@H](Cc1ccc(B(O)O)cc1)C(=O)O", "note": "[L-BPA, 4-borono-L-phenylalanine, reference compound]", "values": [
      {"measurement": "IC50", "setting": "Rattus norvegicus", "value": "> 2000", "unit": "µM"}
    ]},
    {"compound": "cis-1-amino-3-(dodecaboranylthiomethyl)cyclobutanecarboxylic acid trisodium salt [cis-ACBC-BSH]", "values": [
      {"measurement": "IC50", "value": 2500, "unit": "µM"}
    ]},
    {"compound": "trans-1-amino-3-(dodecaboranylthiomethyl)cyclobutane-carboxylic acid trisodium salt [trans-ACBC-BSH]", "values": [
      {"measurement": "IC50", "value": 2100, "unit": "µM"}
    ]},
    {"compound": "1-amino-4-[(undecahydrododecaboranyl-thio)methyl]cyclohexanone-1-carboxylic acid disodium salt [cis-ACHC-BSH]", "values": [
      {"measurement": "IC50", "value": "< 300", "unit": "µM"}
    ]}
  ]
}
